{"source": "patent US20220380430A1", "about": "“Non-Transgenic Functional Rescue of Neuropeptides” (Worcester Polytechnic Institute, priority 2021, published 2022)", "key": {"flp-3 lof males [1]": {"system": "flp-3 lof males", "assay": "Drop avoidance assay to ascr #8 after FLP-3 peptide rescue-by-feeding", "type": "in vivo, C. elegans", "details": "flp-3 lof males raised on peptide; 1 μM ascr #8; in words", "method": "To identify which FLP-3 peptides are required for male avoidance of ascr #8, a peptide feeding approach https://www.nature.com/articles/s42003-021-02547-7-ref-CR59 was adopted, similar to RNAi feeding (FIG. 16A). Using Gateway Cloning technology, FLP-3 peptide coding sequences were inserted into a bacterial expression vector. As a control, first the FLP-3 peptides were tested that are still encoded in the ok3625 allele which are insufficient to drive the proper ascr #8 response in vivo: FLP-3-1 (SPLGTMRFamide) (SEQ ID NO: 10) and FLP-3-4 (NPLGTMRFamide) (SEQ ID NO: 11). Then flp-3 lof animals were reared on lawns of bacteria expressing the rescue constructs, and their progeny were assayed for avoidance (FIG. 16B-FIG. 16D).\nAssays were performed as described previously in Chute, C. D. & Srinivasan, J. Semin. Cell Dev. Biol. 33, 18-24 (2014); Chute, C. D. et al. Nat. Commun. 10, 3186 (2019); and Hilliard, M. A. et al., EMBO J. 23, 1101-1111 (2004). Fifty to sixty L4 worms were segregated by sex and stored at 20° C. for 5 h to overnight to be assayed as young adults. One to four hours prior to the assay, the lids of unseeded plates were tilted to allow any excess moisture to evaporate off the plates. At the time of the assay, 10 or more animals were transferred onto each of the dried, unseeded plates. A drop of either water or 1 μM ascr #8 was placed on the tail of forward moving animals, and their response was scored as either an avoidance response, or no response. The total number of avoidances was divided by the total number of drops to generate an avoidance index for that plate. This was repeated for at least 10 plates over at least three different days.\nSCRAMBLE control or FLP-3 peptide constructs were grown overnight in LB media containing […] ampicillin at 37° C. and diluted to an OD600 of 1.0 prior to seeding on NGM plates containing […] ampicillin and 1 mM IPTG. The 75 μL lawn was left to dry and grow overnight at room temperature before three L4 animals were placed on the plates. Males were selected for testing in the same manner as described above but were isolated onto plates also seeded with the same peptide on which they had been reared. Animals were then assayed using either the avoidance assay or single worm assay."}, "flp-3 lof males [2]": {"system": "flp-3 lof males", "assay": "Single worm attraction assay (SWAA) to ascr #8 after FLP-3 peptide rescue-by-feeding", "type": "in vivo, C. elegans", "details": "flp-3 lof males raised on peptide; in words", "method": "The outer forty wells of a 48-well suspension culture plate (Olympus Plastics, Cat #: 25-103) were seeded with 200 μL of standard NGM agar. To prepare the plates for the assay, they were acclimated to room temperature, at which point each well was seeded with 65 μL of OP50 E. coli. The assay plates were then transferred to a 37° C. incubator with the lid tilted for 4 h to allow the bacterial culture to dry on the agar. Once the bacterial culture dried, the lid was replaced the plate was stored at 20° C. until used in the assay. Fifty to sixty L4 worms were segregated by sex and stored at 20° C. for 5 h to overnight to be assayed as young adults. 0.8 μL of either vehicle control or ascaroside #8 was placed in the center of the well corresponding to that condition within the quadrant being tested, following a random block design (FIG. 11A). A single worm was placed in each of the 10 wells to be assayed, and the plate was transferred to a light source and camera and recorded for 15 m. This process was repeated for all four quadrants. Each strain and sex were assayed over five plates assayed on at least three different days. Raw dwell time values were calculated by subtracting the time a worm exited the cue (center of the well in spatial controls), from the time it entered, as in the SRA. This was determined per visit, and the average dwell time was calculated for each animal in the quadrant. Averages of the four-quadrant means were determined per plate, and a minimum of five plates were assayed per strain/condition. The mean raw dwell time across five plates was calculated and used for statistical analyses and graphical display. The average dwell time in the ascaroside was divided by the average dwell time within the vehicle control per plate to generate a fold-change. To transform the data, the log of this fold-change was taken, and the average log(fold-change) was used for statistical analyses and graphical display. […]"}}, "note": "No end group written: not given here.", "data": [{"substance": "NSKLHRGGGRSRTSGSTGSMASHARGSPGLQ-NH2 [SCRAMBLE, scramble control peptide expressed in E. coli DH5α, negative control, reference compound]", "values": [{"measurement": "rescue of avoidance phenotype to ascr #8 (Avoidance Index)", "setting": "flp-3 lof males [1]", "value": "does not affect behavior"}, {"measurement": "rescue of attraction to ascr #8 (dwell time, log(fold-change))", "setting": "flp-3 lof males [2]", "value": "does not affect behavior"}]}]}
